Legend:
Experiment in all cases: relative viability (nuclei count vs DMSO), 5 days (fraction); higher = more cells survive
[1] = compound: O=C(C[C@H]1NCCC[C@@H]1O)Cn1cnc2cc(Br)c(Cl)cc2c1=O (racemic) [Halofuginone] + C[C@@H](Oc1cc(-c2cnn(C3CCNCC3)c2)cnc1N)c1c(Cl)ccc(F)c1Cl [Crizotinib] (partner 1 µM)
How it was run: (§1)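 Relative viability equals treated-well nuclei counts divided by vehicle-well nuclei counts. Counts came from 4× images of lung cancer cell lines grown in 1536-well plates for 5 days after pin-tool dosing on the day after seeding. Dosing used one drug alone or a fixed anchor-drug dose plus five library-drug doses (not always all listed) in √10 steps, and values are medians of duplicate plates.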

[2] = compound: Nc1ncn([C@H]2C[C@H](O)[C@@H](CO)O2)c(=O)n1 [Decitabine] + Nc1nc2[nH]cc(CCc3ccc(C(=O)N[C@@H](CCC(=O)O)C(=O)O)cc3)c2c(=O)[nH]1 [Pemetrexed] (partner 0.2 µM)
How it was run: as §1

[3] = compound: Nc1ncn([C@H]2C[C@H](O)[C@@H](CO)O2)c(=O)n1 [Decitabine] + CS(=O)(=O)N1CCN(Cc2cc3nc(-c4cccc5[nH]ncc45)nc(N4CCOCC4)c3s2)CC1 [Pictilisib] (partner 1 µM)
How it was run: as §1

[4] = compound: Nc1ncn([C@H]2C[C@H](O)[C@@H](CO)O2)c(=O)n1 [Decitabine] + CC(=O)Nc1cccc(-n2c(=O)n(C3CC3)c(=O)c3c(Nc4ccc(I)cc4F)n(C)c(=O)c(C)c32)c1 [Trametinib] (partner 0.02 µM)
How it was run: as §1

## UMC-11
[1]; first compound 0.001 µM
  relative viability: 0.66
[1]; first compound 0.003162 µM
  relative viability: 0.558
[1]; first compound 0.01 µM
  relative viability: 0.575
[1]; first compound 0.03162 µM
  relative viability: 0.534
[1]; first compound 0.1 µM
  relative viability: 0.215
[2]; first compound 0.04 µM
  relative viability: 0.691
[2]; first compound 0.1265 µM
  relative viability: 0.563
[2]; first compound 0.4 µM
  relative viability: 0.406
[2]; first compound 1.265 µM
  relative viability: 0.358
[2]; first compound 4 µM
  relative viability: 0.351
[3]; first compound 0.04 µM
  relative viability: 0.737
[3]; first compound 0.1265 µM
  relative viability: 0.794
[3]; first compound 0.4 µM
  relative viability: 0.315
[3]; first compound 1.265 µM
  relative viability: 0.335
[3]; first compound 4 µM
  relative viability: 0.271
[4]; first compound 0.04 µM
  relative viability: 0.697
[4]; first compound 0.1265 µM
  relative viability: 0.609
[4]; first compound 0.4 µM
  relative viability: 0.4
[4]; first compound 1.265 µM
  relative viability: 0.331
[4]; first compound 4 µM
  relative viability: 0.367

Source: the supplement of paper PMC10307832
